Measurements as given in patent US6235973A, “Expression of magainin and PGL classes of antimicrobial peptide genes in plants, and their use in creating resistance to multiple plant pathogens” (Sanford Scientific, Inc., priority 1998, dated 2001).
Where “and” joins values, the source holds several entries; their conditions need not be identical. Identical values can stand only once. Residues, ends and D or L forms follow the SMILES beside them.

How the values were obtained:
Botrytis cinerea [1] = assay: Anti-Botrytis leaf disk bioassay, transgenic poinsettia; settings: control = 100
[2] = system: Pseudomonas syringae and Erwinia carotovora; settings: for activity against log phase-grown Pseudomomas and Erwinia: compared with MSI-99 and D5-C
Fusarium solani = assay: In vitro MIC, microtiter serial dilution; format: cell-based
Rhizoctonia solani R2 = settings: Rhizoctonia solani R2, mycelial fragments
[3] = system: Phytophthora parasitica (petunia); assay: In vitro MIC, microtiter serial dilution; format: cell-based; settings: germinated
Erwinia carotovora = assay: In vitro MIC, microtiter serial dilution; format: cell-based; settings: inhibits all growth after 24 hrs
Thielaviopsis basicola = assay: In vitro MIC, microtiter serial dilution; format: cell-based
[4] = system: Phytophthora parasitica (vinca); assay: In vitro MIC, microtiter serial dilution; format: cell-based
Botrytis cinerea [5] = assay: Anti-Botrytis leaf disk bioassay, transgenic petunia; settings: control = 100
Botrytis cinerea [6] = assay: In vitro MIC, microtiter serial dilution; format: cell-based
Fusarium graminearum = format: cell-based; settings: non-germinated
Pseudomonas syringae = assay: In vitro MIC, microtiter serial dilution; format: cell-based; settings: inhibits all growth after 24 hrs
[7] = plasmid 144, three distinct plants
[8] = plasmid 143, three distinct plants

| SMILES | MIC [2] | Minimum Inhibitory Concentration (Fusarium solani; germinated) | Minimum Inhibitory Concentration (Fusarium solani; non-germinated) | Minimum Inhibitory Concentration (Rhizoctonia solani R2) | Minimum Inhibitory Concentration [3] | Minimum Inhibitory Concentration (Erwinia carotovora) | Minimum Inhibitory Concentration (Thielaviopsis basicola; germinated) | Minimum Inhibitory Concentration (Thielaviopsis basicola; non-germinated) | Minimum Inhibitory Concentration ([4]; germinated) | Minimum Inhibitory Concentration ([4]; non-germinated) | Minimum Inhibitory Concentration (Botrytis cinerea [6]; germinated) | Minimum Inhibitory Concentration (Botrytis cinerea [6]; non-germinated) | Minimum Inhibitory Concentration (Fusarium graminearum) | Minimum Inhibitory Concentration (Pseudomonas syringae) | activity against log phase-grown Pseudomomas and Erwinia [2] | other results |
| --- | --- | --- | --- | --- | --- | --- | --- | --- | --- | --- | --- | --- | --- | --- | --- | --- |
| CC[C@H](C)[C@H](NC(=O)[C@H](CCCCN)NC(=O)[C@H](CCCNC(=N)N)NC(=O)[C@H](C)NC(=O)[C@H](CC(C)C)NC(=O)[C@H](CCCCN)NC(=O)[C@H](CCCCN)NC(=O)[C@H](CC(C)C)NC(=O)[C@H](CCCNC(=N)N)NC(=O)[C@H](CCCNC(=N)N)NC(=O)CNC(=O)[C@@H](NC(=O)[C@H](CCCNC(=N)N)NC(=O)[C@H](CCCCN)NC(=O)[C@@H](NC(=O)[C@H](C)NC(=O)[C@H](CCCNC(=N)N)NC(=O)[C@H](CCCCN)NC(=O)[C@H](CCCNC(=N)N)NC(=O)[C@H](CCCCN)NC(=O)[C@@H](N)CCSC)C(C)C)C(C)C)C(=O)N[C@@H](C)C(=O)N[C@@H](CCCNC(=N)N)C(=O)N[C@@H](CC(C)C)C(=O)NCC(=O)N[C@H](C(=O)N[C@@H](C)C(=O)N[C@@H](Cc1ccccc1)C(=O)O)C(C)C [D5-C, reference compound] (H-MKRKRAVKRVGRRLKKLARKIARLGVAF-OH) | < 2 µg/mL | 4 µg/mL | 4 µg/mL | 32 to 64 µg/mL | 16 to 32 µg/mL | 2 µg/mL | 16 µg/mL | 16 µg/mL | 16 to 32 µg/mL | 16 µg/mL |  |  |  |  |  | Disease Incidence, percent leaf disks infected relative to untransformed control (Botrytis cinerea [1]; [7]): 62% and 68% and 72%; Disease Incidence, percent leaf disks infected relative to untransformed control (Botrytis cinerea [1]; plasmid 165, three distinct plants): 42% and 60% and 67%; Disease Incidence, percent leaf disks infected relative to untransformed control (Botrytis cinerea [5]; [7]): 31% and 41% and 50%; Disease Incidence, percent leaf disks infected relative to untransformed control (Botrytis cinerea [5]; plasmid 148, three distinct plants): 52% and 70% and 75% |
| CC[C@H](C)[C@H](NC(=O)CNC(=O)[C@@H](N)CCSC)C(=O)NCC(=O)N[C@@H](CCCCN)C(=O)N[C@@H](Cc1ccccc1)C(=O)N[C@@H](CC(C)C)C(=O)N[C@@H](CCCCN)C(=O)N[C@@H](CO)C(=O)N[C@@H](C)C(=O)N[C@@H](CCCCN)C(=O)N[C@@H](CCCCN)C(=O)N[C@@H](Cc1ccccc1)C(=O)NCC(=O)N[C@@H](CCCCN)C(=O)N[C@@H](C)C(=O)N[C@@H](Cc1ccccc1)C(=O)N[C@H](C(=O)N[C@@H](CCCCN)C(=O)N[C@H](C(=O)N[C@@H](CC(C)C)C(=O)N[C@@H](CC(N)=O)C(=O)N[C@@H](CO)C(=O)O)[C@@H](C)CC)C(C)C [MSI-99] (H-MGIGKFLKSAKKFGKAFVKILNS-OH; N-terminus and C-terminus assumed) | < 2 µg/mL | 4 µg/mL | 2 µg/mL | 16 µg/mL | 8 to 16 µg/mL | 1 µg/mL | 4 µg/mL | 4 µg/mL | 16 to 32 µg/mL | 64 µg/mL | 8 µg/mL | 8 µg/mL | 4 µg/mL | 1 µg/mL |  | Disease Incidence, percent leaf disks infected relative to untransformed control (Botrytis cinerea [1]; [8]): 48% and 61% and 69%; Disease Incidence, percent leaf disks infected relative to untransformed control (Botrytis cinerea [1]; plasmid 168, three distinct plants): 31% and 40% and 52%; Disease Incidence, percent leaf disks infected relative to untransformed control (Botrytis cinerea [5]; [8]): 26% and 30% and 31%; Disease Incidence, percent leaf disks infected relative to untransformed control (Botrytis cinerea [5]; plasmid 147, three distinct plants): 36% and 60% and 70% |
| CC[C@H](C)[C@H](NC(=O)CNC(=O)[C@@H](N)CCSC)C(=O)NCC(=O)N[C@@H](CCCCN)C(=O)N[C@@H](Cc1ccccc1)C(=O)N[C@@H](CC(C)C)C(=O)N[C@@H](Cc1c[nH]cn1)C(=O)N[C@@H](CO)C(=O)N[C@@H](C)C(=O)N[C@@H](CCCCN)C(=O)N[C@@H](CCCCN)C(=O)N[C@@H](Cc1ccccc1)C(=O)NCC(=O)N[C@@H](CCCCN)C(=O)N[C@@H](C)C(=O)N[C@@H](Cc1ccccc1)C(=O)N[C@H](C(=O)NCC(=O)N[C@@H](CCC(=O)O)C(=O)N[C@H](C(=O)N[C@@H](CCSC)C(=O)N[C@@H](CC(N)=O)C(=O)N[C@@H](CO)C(=O)O)[C@@H](C)CC)C(C)C [Mag 2] (H-MGIGKFLHSAKKFGKAFVGEIMNS-OH; N-terminus and C-terminus assumed) |  | 4 to 8 µg/mL | 4 µg/mL | 16 to 32 µg/mL | > 128 µg/mL | 32 µg/mL | 4 µg/mL | 8 µg/mL | > 128 µg/mL | > 256 µg/mL | 8 µg/mL | 8 to 16 µg/mL | 4 µg/mL | 32 µg/mL | significantly less active |  |
| CC[C@H](C)[C@H](NC(=O)[C@H](C)NC(=O)CNC(=O)[C@H](C)NC(=O)[C@H](CCCCN)NC(=O)[C@H](CO)NC(=O)[C@H](C)NC(=O)[C@H](CCSC)NC(=O)CN)C(=O)N[C@@H](C)C(=O)NCC(=O)N[C@@H](CCCCN)C(=O)N[C@H](C(=O)N[C@@H](C)C(=O)N[C@@H](CCCCN)C(=O)N[C@H](C(=O)N[C@@H](C)C(=O)N[C@@H](CC(C)C)C(=O)N[C@@H](CCCCN)C(=O)N[C@@H](C)C(=O)N[C@@H](CC(C)C)C(N)=O)C(C)C)[C@@H](C)CC [PGL] (H-GMASKAGAIAGKIAKVALKAL-NH2) |  | 8 to 16 µg/mL | 4 µg/mL | 16 to 32 µg/mL | > 128 µg/mL | 32 µg/mL | 4 µg/mL | 4 to 8 µg/mL | > 128 µg/mL | > 256 µg/mL | 8 µg/mL | 4 to 8 µg/mL | 4 to 8 µg/mL | > 64 µg/mL | significantly less active |  |
